From ChEMBL document CHEMBL5316326, “Discovery of a Novel Covalent EZH2 Inhibitor Based on Tazemetostat Scaffold for the Treatment of Ovarian Cancer” (J Med Chem, 2023)
Activity calls are given as the source filed them. No cut-off for these calls is given here.

How the values were obtained:
Mus musculus = test: In vivo inhibition of EZH2 in human PA-1 cells xenografted in BALB/C nude mouse assessed as reduction in H3K27me3 expression level at 75 to 150 mg/kg,po BID for 21 days by immunohistochemical analysis; type: functional, organism-based; conditions: dose 75-150 mg/kg, time 21.0 day
PA-1 [1] = test: Inhibition of colony formation in human PA-1 cells assessed as reduction in size of colonies at 0.25 to 10 uM incubated for 14 days with medium change every 3 days by crystal violet staining method; type: functional, cell-based; conditions: dose 0.25-10 µM, time 14.0 day
PA-1 [2] = test: Induction of apoptosis in human PA-1 cells assessed as necrotic cells at 5 uM incubated for 48 hrs by AnnexinV-FITC/PI staining based flow cytometry analysis (Rvb= 1.48%); type: functional
[3] = Half life in Sprague-Dawley rat at 100 mg/kg, po and measured upto 24 hrs by LC-MS/MS analysis; type: ADME, organism-based; conditions: in vivo
PA-1 [4] = test: Inhibition of colony formation in human PA-1 cells assessed as reduction in number of colonies at 0.25 to 10 uM incubated for 14 days with medium change every 3 days by crystal violet staining method; type: functional, cell-based; conditions: dose 0.25-10 µM, time 14.0 day
[5] = system: Histone-lysine N-methyltransferase EZH2 (Homo sapiens), Q15910 [Y641N]; conditions: dose 10.0 nM
Sequence of Histone-lysine N-methyltransferase EZH2 (Homo sapiens), Q15910 [Y641N] (Q15910 whole entry Y641N): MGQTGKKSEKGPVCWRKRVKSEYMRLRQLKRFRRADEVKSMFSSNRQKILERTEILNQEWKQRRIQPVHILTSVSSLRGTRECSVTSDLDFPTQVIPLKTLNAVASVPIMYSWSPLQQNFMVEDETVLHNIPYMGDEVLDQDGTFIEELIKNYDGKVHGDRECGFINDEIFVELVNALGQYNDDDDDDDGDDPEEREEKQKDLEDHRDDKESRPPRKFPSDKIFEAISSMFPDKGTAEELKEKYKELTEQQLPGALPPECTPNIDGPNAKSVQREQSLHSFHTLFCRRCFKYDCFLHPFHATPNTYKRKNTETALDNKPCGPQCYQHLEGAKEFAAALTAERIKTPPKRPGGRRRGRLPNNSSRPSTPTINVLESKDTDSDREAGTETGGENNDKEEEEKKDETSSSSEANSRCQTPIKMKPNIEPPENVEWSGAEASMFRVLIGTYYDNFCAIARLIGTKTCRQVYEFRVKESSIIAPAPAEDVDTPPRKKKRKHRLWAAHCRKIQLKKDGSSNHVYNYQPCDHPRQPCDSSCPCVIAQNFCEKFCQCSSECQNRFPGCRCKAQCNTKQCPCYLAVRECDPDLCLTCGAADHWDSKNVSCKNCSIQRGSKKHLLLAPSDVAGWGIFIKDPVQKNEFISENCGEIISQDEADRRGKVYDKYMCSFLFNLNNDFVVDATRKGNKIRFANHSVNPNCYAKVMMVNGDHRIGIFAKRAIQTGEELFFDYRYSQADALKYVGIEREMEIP
Description: Inhibition of EZH2 Y614N mutant (unknown origin) at 10 nM by AlphaLlSA assay

A2780 = test: Inhibition of colony formation in human A2780 cells assessed as reduction in size of colonies at 0.25 to 10 uM incubated for 14 days with medium change every 3 days by crystal violet staining method; type: functional, cell-based; conditions: dose 0.25-10 µM, time 14.0 day
ES-2 = test: Antiproliferative activity against human ES2 cells assessed as inhibition of cell proliferation incubated for 72 hrs by MTT assay; type: functional, cell-based; conditions: ES-2, 72 h
[6] = Toxicity in BALB/C nude mouse xenografted with human PA-1 cells assessed as pathological changes in kidney at 75 to 150 mg/kg,po BID for 21 days by H&E staining based microscopic analysis; type: organism-based; conditions: in vivo, 504 h, dose 75-150 mg/kg, time 21 day
PA-1 [7] = test: Induction of apoptosis in human PA-1 cells assessed as late apoptotic cells at 10 uM incubated for 48 hrs by AnnexinV-FITC/PI staining based flow cytometry analysis (Rvb= 3.09%); type: functional
[8] = system: Histone-lysine N-methyltransferase EZH2 (Homo sapiens), Q15910 [Y641N]; test: Inhibition of EZH2 […] mutant (unknown origin) at 1 nM by AlphaLlSA assay
[9] = Oral bioavailability in Sprague-Dawley rat at 100 mg/kg and measured upto 24 hrs by LC-MS/MS analysis; type: ADME, organism-based; conditions: in vivo
[10] = Glutathione reactivity in pH 7.4 phosphate buffer assessed as GSH-adduct formation at 1 mM incubated for 2 to 12 hrs by HPLC-MS analysis; type: physicochemical; conditions: pH 7.4, 1000 µM, time 2-12 hrs
[11] = Protein binding in Sprague-Dawley rat plasma at 2 uM incubated for 5 hrs by equilibrium dialysis based LC-MS/MS analysis; type: ADME, cell-free; conditions: read-out: PPB (converted)
[12] = biological target: Histone-lysine N-methyltransferase EZH2 (Homo sapiens, UniProt Q15910); test: Inhibition of EZH2 methyltransferase activity in human A2780 cells assessed as reduction in H3K27me3 level incubated for 3 days by Western blot analysis; type: cell-based
Sequence of Histone-lysine N-methyltransferase EZH2 (Q15910 whole entry): as the sequence (Q15910 whole entry Y641N) above, with N641Y counted along it

C=CC(=O)Nc1ccc(C)c(-c2cc(C(=O)NCc3c(C)cc(C)[nH]c3=O)c(C)c(N(CC)C3CCOCC3)c2)c1
inhibition (Mus musculus): Active
inhibition (PA-1 [1]): Dose-Dependent Effect
Activity (PA-1 [2]): 1.22%
half-life [3]: 46.2 min
inhibition (PA-1 [4]): Dose-Dependent Effect
inhibition [5]: Active
inhibition (A2780): Dose-Dependent Effect
IC50 (ES-2): 36.4 µM
Activity [6]: Non-Toxic
Activity (PA-1 [7]): 6.16%
inhibition [8]: Active
bioavailability [9]: 8.73%
Activity [10]: Not Active
fraction unbound at 5 h, 2 µM [11]: 0.0022
IC50 [12]: 1.27 µM
